In patent US10165791B2, “Use of rubusoside for reducing or suppressing certain unpleasant taste impressions” (Symrise AG, priority 2010, dated 2019):

Legend:
[1] = own tests: taste of rubusoside in water; format: in vivo, human
Method: It is known that extracts from Rubus suavissimus or certain compounds isolated therefrom are able to make sweet-tasting orally consumable preparations taste even sweeter, as described in WO 2008/049256. Moreover, it is known that isolated rubusoside from Rubus suavissimus tastes perceptibly sweet starting from a concentration of approx. 25 mg/kg (equivalent to 25 ppm) (taste recognition threshold). Rubusoside can be used as a sweetener (Hirono, S.; Chou, W. H.; Kasai, R.; Tanaka, O.; Tada, T., Sweet and bitter diterpene glucosides from leaves of Rubus suavissimus. Chemical & Pharmaceutical Bulletin 1990, 38, (6), 1743-1744).

[2] = Reduction of astringent and sour impression, panel of trained tasters; format: in vivo, human; details: Yogurt 0.1% fat; 10 mg/kg rubusoside
Method: The following products, in each case without and with a flavoring composition, were assessed by a panel of trained tasters. The astringent impression and sour impression were assessed on a scale from 1 (not perceptible) to 9 (very strong) and averaged for the tasters.

[3] = isolated rubusoside from Rubus suavissimus; equivalent to 25 ppm; cited from earlier work
[4] = in the presence of acids; cited from earlier work

C=C1C[C@@]23CC[C@H]4[C@@](C)(CCC[C@@]4(C)C(=O)O[C@@H]4O[C@H](CO)[C@@H](O)[C@H](O)[C@H]4O)[C@@H]2CC[C@]1(O[C@@H]1O[C@H](CO)[C@@H](O)[C@H](O)[C@H]1O)C3 [rubusoside, Rubusoside]
sweet taste equivalent to the sweetness of an aqueous sucrose solution ([1]; 100 mg/kg (100 ppm) in water): 1.4%
concentration above which a recognizably bitter taste is additionally displayed ([1]; in water): > 100 mg/kg
Astringent impression (0-9) b) with test substance [2]: 5
Sour impression (0-9) b) with test substance [2]: 5.5
taste recognition threshold (tastes perceptibly sweet starting from) [3]: approx. 25 mg/kg

B1: miraculin: protein that in the presence of acids transforms the sour impression into a sweet taste impression (protein, UniProt P13087 30-220, looked up)
Miraculin: DSAPNPVLDIDGEKLRTGTNYYIVPVLRDHGGGLTVSATTPNGTFVCPPRVVQTRKEVDHDRPLAFFPENPKEDVVRVSTDLNINFSAFMPCRWTSSTVWRLDKYDESTGQYFVTIGGVKGNPGPETISSWFKIEEFCGSGFYKLVFCPTVCGSCKVKCGDVGIYIDQKGRRRLALSDKPFAFEFNKTVYF
duration of the conversion of sour impression to sweet taste [4]: 2 to 4 h
